Experimental findings from patent US11077090B2, “Compounds and compositions and uses thereof” (Sunovion Pharmaceuticals Inc., priority 2016, dated 2021) are described below.

The structures appear in SMILES notation. Where a name gives a salt, the structure may show the parent alone. Read-outs that look alike come from different tables or passages of the source.

This test has as its system compound-treated mice. As to the kind of experiment: Neuropharmacological assay (SmartCube): behavioral activity signature and minimal effective dose. It is filed as in vivo. The settings on record: for minimal effective dose: Mus musculus, ip; for AD: ADHD (probability of activity signature) / AG: analgesic (probability of activity signature) / AX: anxiolytic (probability of activity signature) / CE: cognitive enhancer (probability of activity signature) / DP: anti-depressant (probability of activity signature) / MS: mood stabilizer (probability of activity signature) / PS: anti-psychotic (probability of activity signature) / SD: sedative hypnotic (probability of activity signature) / UN: uncharacterized CNS activity (probability of activity signature): i.p. 15 min before test, most efficacious dose(s). From the text: Neurosci. 2011 Sep. 9; 5:103 (doi: 10.3389/fnins.2011.00103) (“Roberds”). As reported in Roberds, because psychiatric diseases generally result from disorders of cell-cell communication or circuitry, intact systems are useful in detecting improvement in disease-relevant endpoints. These endpoints are typically behavioral in nature, often requiring human observation and interpretation. To facilitate testing of multiple compounds for behavioral effects relevant to psychiatric disease, PsychoGenics, Inc. (Tarrytown, N.Y., “PGI”) developed SmartCube™, an automated system in which behaviors of compound-treated mice are captured by digital video and analyzed with computer algorithms. (D. Brunner et al., Drug Discov. Today 2002, 7:S107-S112). PGI Analytical Systems uses data from SmartCube™ to compare the behavioral signature of a test compound to a database of behavioral signatures obtained using a large set of diverse reference compounds. (The composition of the database as well as validation of the method is further described in Roberds). In this way, the neuropharmacological effects of a test compound can be predicted by similarity to major classes of compounds, such as antipsychotics, anxiolytics and antidepressants.
The SmartCube™ system produces an activity signature indicating the probability that the activity of the test compound at the administered dose matches a given class of neuropharmacological agents. (See, e.g., Roberds, FIGS. 2 and 3). The test compound is simultaneously compared against multiple classes of agents; thus, a separate probability is generated for each behavioral effect measured (e.g., anxiolytic activity, analgesic activity, etc.). In the table below, these probabilities are reported for each behavioral effect measured as follows:
where LOQ is the limit of quantification.
Provided compounds were dissolved in a mixture of Pharmasolve™ (N-methyl-2-pyrrolidone), polyethylene glycol and propylene glycol, and were injected i.p. 15 min. before the behavioral test. For each compound, injections were administered at 3 different doses. For each behavioral effect measured, results for the most efficacious dose(s) are presented. In the table below, DP: anti-depressant; AX: anxiolytic; SD: sedative hypnotic; PS: anti-psychotic; MS: mood stabilizer; AD: ADHD; CE: cognitive enhancer; AG: analgesic; UN: uncharacterized CNS activity.
The potency of many of the compounds in the table was also determined in the SmartCube™ system. Test compounds were routinely examined at dose levels of 0.3, 1, 3, 10 and 30 mg per kg (mpk), although the dose range was increased or decreased if necessary to obtain a full dose response curve. A compound's minimal effective dose (MED) is a measure of the compounds potency. The MED was defined as the dose (in mpk) having 50% or more total activity in SmartCube.

Setting [1] is: MED = dose having 50% or more total activity, read-out: Potency: minimal effective dose (MED).
Setting [2] is: MED = dose having 50% or more total activity, read-out: Potency: minimal effective dose (MED), binned.

Consider `C[C@@H]1OC[C@@H](N)c2ccccc21.Cl` (relative stereo) [Example 105, trans-1-Methylisochroman-4-amine hydrochloride], for which the “AD: ADHD (probability of activity signature)” value (from here on “AD: ADHD”) is listed as “+ (LOQ ≤ + <5%)”, the “AG: analgesic (probability of activity signature)” value (shortened to “AG: analgesic”) is “++ (5% ≤ ++ <25%)”, the “AX: anxiolytic (probability of activity signature)” value (“AX: anxiolytic” for short) is on record as “++ (5% ≤ ++ <25%)” and the “CE: cognitive enhancer (probability of activity signature)” value (“CE: cognitive enhancer” for short) is reported as “++ (5% ≤ ++ <25%)”. Moreover, the “DP: anti-depressant (probability of activity signature)” value (“DP: anti-depressant” for short) was “++ (5% ≤ ++ <25%)”, the “MS: mood stabilizer (probability of activity signature)” value (from here on “MS: mood stabilizer”) was “++ (5% ≤ ++ <25%)”, the “PS: anti-psychotic (probability of activity signature)” value (from here on “PS: anti-psychotic”) is “++ (5% ≤ ++ <25%)” and the “SD: sedative hypnotic (probability of activity signature)” value (“SD: sedative hypnotic” for short) is listed as “+ (LOQ ≤ + <5%)”. Moreover, the “UN: uncharacterized CNS activity (probability of activity signature)” value (“UN: uncharacterized CNS activity” below) was “+++ (25% ≤ +++ <50%)”. Besides, the minimal effective dose – broadly, the lowest level tested that produced the effect sought – under setting [1] was 10 to 30 mg/kg.
`CN[C@@H]1CO[C@@H](C)c2ccccc21` (relative stereo) [Example 236, trans-N,1-dimethylisochroman-4-amine hydrochloride]: the “AD: ADHD” value is “+ (LOQ ≤ + <5%)”, the “AG: analgesic” value is “++ (5% ≤ ++ <25%)”, the “AX: anxiolytic” value is “++ (5% ≤ ++ <25%)” and the “CE: cognitive enhancer” value is recorded as “+ (LOQ ≤ + <5%)”. Further, the “DP: anti-depressant” value is “++ (5% ≤ ++ <25%)”, the “MS: mood stabilizer” value is given as “+ (LOQ ≤ + <5%)”, the “PS: anti-psychotic” value was “++ (5% ≤ ++ <25%)” and the “SD: sedative hypnotic” value was “+ (LOQ ≤ + <5%)”. Also, the “UN: uncharacterized CNS activity” value was “++++ (50% ≤ ++++)”. Further, the minimal effective dose under setting [2] was 3 to 10 mg/kg.
Regarding `CN[C@@H]1CO[C@H](C)c2ccccc21` (relative stereo) [Example 240, cis-N,1-dimethylisochroman-4-amine hydrochloride], the “AD: ADHD” value is on record as “+ (LOQ ≤ + <5%)”, the “AG: analgesic” value was “++ (5% ≤ ++ <25%)”, the “AX: anxiolytic” value was “++ (5% ≤ ++ <25%)” and the “CE: cognitive enhancer” value is “++ (5% ≤ ++ <25%)”. In addition, the “DP: anti-depressant” value was “++ (5% ≤ ++ <25%)”, the “MS: mood stabilizer” value was “+ (LOQ ≤ + <5%)”, the “PS: anti-psychotic” value is “++ (5% ≤ ++ <25%)” and the “SD: sedative hypnotic” value was “++ (5% ≤ ++ <25%)”. Further, the “UN: uncharacterized CNS activity” value is reported as “+++ (25% ≤ +++ <50%)”. Besides, the minimal effective dose under setting [2] is 3 to 10 mg/kg.
On to `CC(C)[C@@H]1OCc2ccccc2[C@@H]1N` (relative stereo) [Example 256, cis-3-Isopropylisochroman-4-amine hydrochloride], for which the “AD: ADHD” value was “++ (5% ≤ ++ <25%)”, the “AG: analgesic” value is “+ (LOQ ≤ + <5%)”, the “AX: anxiolytic” value is “++ (5% ≤ ++ <25%)” and the “CE: cognitive enhancer” value is “+ (LOQ ≤ + <5%)”. The “DP: anti-depressant” value was “+ (LOQ ≤ + <5%)”, the “MS: mood stabilizer” value is “++ (5% ≤ ++ <25%)”, the “PS: anti-psychotic” value is recorded as “+++ (25% ≤ +++ <50%)” and the “SD: sedative hypnotic” value is recorded as “++ (5% ≤ ++ <25%)”. Moreover, the “UN: uncharacterized CNS activity” value is given as “++ (5% ≤ ++ <25%)”. The minimal effective dose under setting [2] is 3 to 10 mg/kg.
In the case of `CC(C)[C@@H]1OCc2ccccc2[C@H]1N.Cl` (relative stereo) [Example 257, trans-3-Isopropylisochroman-4-amine hydrochloride], the “AD: ADHD” value was “+ (LOQ ≤ + <5%)”, the “AG: analgesic” value is “+ (LOQ ≤ + <5%)”, the “AX: anxiolytic” value was “+ (LOQ ≤ + <5%)” and the “CE: cognitive enhancer” value is “+ (LOQ ≤ + <5%)”. In addition, the “DP: anti-depressant” value is given as “++ (5% ≤ ++ <25%)”, the “PS: anti-psychotic” value is listed as “++ (5% ≤ ++ <25%)” and the “UN: uncharacterized CNS activity” value was “++ (5% ≤ ++ <25%)”. Also, under setting [2], the minimal effective dose was in the range of 3 to 10 mg/kg. Besides, where the note is “hydrochloride”, the “MS: mood stabilizer” value is “++ (5% ≤ ++ <25%)” and the “SD: sedative hypnotic” value was “+++ (25% ≤ +++ <50%)”.
Consider `CC(C)[C@@H]1OCc2ccccc2[C@H]1N.Cl` (relative stereo) [Example 274, trans-3-Isopropylisochroman-4-amine hydrochloride], for which the “AD: ADHD” value is on record as “+ (LOQ ≤ + <5%)”, the “AG: analgesic” value was “+ (LOQ ≤ + <5%)”, the “AX: anxiolytic” value is reported as “+ (LOQ ≤ + <5%)” and the “CE: cognitive enhancer” value is “+ (LOQ ≤ + <5%)”. For the same compound, the “DP: anti-depressant” value is reported as “++ (5% ≤ ++ <25%)”, the “PS: anti-psychotic” value is on record as “++ (5% ≤ ++ <25%)” and the “UN: uncharacterized CNS activity” value is recorded as “++ (5% ≤ ++ <25%)”. Further, under “MED = dose having 50% or more total activity, hydrochloride”, the “Potency: minimal effective dose (MED), binned” value is “A (≤3 mpk)”. Further, for the setting “hydrochloride”, the “MS: mood stabilizer” value was “+++ (25% ≤ +++ <50%)” and the “SD: sedative hypnotic” value was “++ (5% ≤ ++ <25%)”.
Regarding `Cl.N[C@H]1c2ccccc2CO[C@H]1CF` (relative stereo) [Example 275, cis-3-(fluoromethyl)isochroman-4-amine hydrochloride], the “AD: ADHD” value is given as “+ (LOQ ≤ + <5%)”, the “AG: analgesic” value was “+ (LOQ ≤ + <5%)”, the “AX: anxiolytic” value is on record as “+ (LOQ ≤ + <5%)” and the “CE: cognitive enhancer” value was “+ (LOQ ≤ + <5%)”. Besides, the “DP: anti-depressant” value is reported as “+ (LOQ ≤ + <5%)”, the “MS: mood stabilizer” value is given as “++ (5% ≤ ++ <25%)”, the “PS: anti-psychotic” value was “+ (LOQ ≤ + <5%)” and the “SD: sedative hypnotic” value is recorded as “+++ (25% ≤ +++ <50%)”. In addition, the “UN: uncharacterized CNS activity” value is listed as “++ (5% ≤ ++ <25%)”. Also, the minimal effective dose under setting [2] was 3 to 10 mg/kg.
Regarding `C[C@H]1OCc2ccc3ccccc3c2[C@@H]1N.Cl` (single isomer, unassigned) [Example 90], the “AD: ADHD” value is recorded as “+ (LOQ ≤ + <5%)”, the “AG: analgesic” value was “++ (5% ≤ ++ <25%)”, the “AX: anxiolytic” value was “+++ (25% ≤ +++ <50%)” and the “CE: cognitive enhancer” value is listed as “++ (5% ≤ ++ <25%)”. Moreover, the “DP: anti-depressant” value is listed as “++ (5% ≤ ++ <25%)”, the “MS: mood stabilizer” value was “+ (LOQ ≤ + <5%)”, the “PS: anti-psychotic” value was “+ (LOQ ≤ + <5%)” and the “SD: sedative hypnotic” value is listed as “++ (5% ≤ ++ <25%)”. In addition, the “UN: uncharacterized CNS activity” value was “+ (LOQ ≤ + <5%)”. Besides, the minimal effective dose under setting [1] was in the range of 10 to 30 mg/kg.
Take `C[C@@H]1OCc2ccc3ccccc3c2[C@@H]1N.Cl` (single isomer, unassigned) [Example 91]: the “AD: ADHD” value is reported as “+ (LOQ ≤ + <5%)”, the “AG: analgesic” value is recorded as “++ (5% ≤ ++ <25%)”, the “AX: anxiolytic” value is given as “+ (LOQ ≤ + <5%)” and the “CE: cognitive enhancer” value is reported as “++ (5% ≤ ++ <25%)”. Moreover, the “DP: anti-depressant” value was “+ (LOQ ≤ + <5%)”, the “MS: mood stabilizer” value is reported as “+ (LOQ ≤ + <5%)”, the “PS: anti-psychotic” value is “++ (5% ≤ ++ <25%)” and the “SD: sedative hypnotic” value is given as “++ (5% ≤ ++ <25%)”. For the same compound, the “UN: uncharacterized CNS activity” value is on record as “+++ (25% ≤ +++ <50%)”. The minimal effective dose under setting [1] lay within 10 to 30 mg/kg.
